These results are taken from US9895443B2, “Multi-tailed lipids and uses thereof” (Massachusetts Institute of Technology, priority 2013, dated 2018).

For data set [1], the system named is HeLa cells. Nature of the data set: Intracellular FRET with FRET-labeled siRNA probes (flow cytometry). The note with it: early time point after transfection. Type of data set: cell-based. Here is the method: (§1) Extracellular/Intracellular Fluorescence Resonance Energy Transfer (FRET) Assays and Cellular Uptake
(§2) LNPs containing an equimolar mixture of siRNAs labeled with Alexa Fluor® 594 and Alexa Fluor® 647 were diluted to 10 ng siRNA/μL with 1×PBS and added to a black 96-well plate pre-plated with 20,000 HeLa cells at 37° C. Control wells contained LNPs with 1% Triton-X. To measure the FRET, the samples were excited at 540 nm, and the fluorescence intensity was read at 690 and 620 nm using a Tecan Safire 2 Microplate reader at 37° C. FRET was determined as the ratio of the fluorescence intensities at 690/620 nm. FRET signals for all LNPs were normalized to that of the control wells. For extracellular FRET experiments, an identical experiment was carried out without cells, and the FRET data obtained were similar. […] The trypsined cells were then neutralized with 120 μL of quenching media (25% cell culture media in 1×PBS) and transferred to a 96-well v-bottom plate and analyzed via flow cytometry. For each sample, 10,000 events were monitored and evaluated by a BD LSR II HTS flow cytometer (BD Bioscience). […] For cell uptake studies, LNPs formulated with just Alexa Fluor® 647 were analyzed using settings for the Alexa Fluor® 647 channel: exciation via a 633 nm (red, HeNe) laser and emission via a 660/20 nm filter.
In general terms: A flow cytometer gives signals particle by particle.

Data set [2] is described as follows: 6-p-toluidinyl-naphthalene-2-sulfonate (TNS) assay, apparent pKa of the LNPs. The class given is physicochemical. The following applies: TNS fluorescence titration pH 2.5 to 8.5, fully formulated LNP. Here is the method:
6-p-toluidinyl-naphthalene-2-sulfonate (TNS) Assay
A series of buffers with pH ranging between 2.5 and 8.5 were prepared by adjusting the pH of a solution containing 10 mM citrate, 10 mM phosphate, 10 mM borate, and 150 mM NaCl with 1N HCl. 90 μL of each buffer solution was added to a 96-well plate. A 300 μM stock solution of TNS was prepared in DMSO and 2 μL of this solution was added to the buffer solutions in the 96 well plate. After formulation, 10 μL of an LNP solution (prepared without siRNA) was added to the above mixture such that the synthesized lipid concentration (not co-lipids) in the final mixture was […]. The fluorescence of the resulting solution was obtained on a Tecan Safire 2 Microplate reader using an excitation wavelength of 325 nm and an emission wavelength of 435 nm. The fluorescence signal was plotted against pH and fitted using a three-parameter logistic equation (GraphPad Prism v.5.0a, GraphPad Software, San Diego Calif. USA). The pH value at which half of the maximum fluorescence is reached was reported as the apparent pKa of the LNPs.

Data set [3] concerns HeLa cells. Briefly: Cellular uptake of LNPs with Alexa Fluor 647 siRNA (flow cytometry). The class given is cell-based. The note with it: two hours incubation, serum containing media. Here is the method: as §1, §2
Data set [4] deals with HeLa cells stably modified to constitutively express both firefly and Renilla luciferases. Briefly: In vitro transfection: firefly luciferase silencing by LNP-siRNA (Dual-Glo). Type of data set: cell-based. The following applies: LNPs with anti-firefly luciferase siRNA, serum containing media, 24 hours. Here is the method:
Lipid nanoparticles were formulated by mixing an equal volume of an ethanolic solution of a lipid of the invention (e.g., a compound of the invention) and an […] at pH 3 to give a 5:1 synthesized lipid:siRNA ratio. The resulting solution was then diluted in an equal volume of 1× phosphate-buffered saline (PBS). The ethanolic lipid solution contained a mixture of synthesized lipids, cholesterol (Sigma Aldrich), 1,2-distearoyl-sn-glycero-3-phosphocholine (DSPC, Avanti Polar Lipids, Alabaster, Ala.) and mPEG2000-DMG (MW 2660, Alnylam Pharmaceuticals, Cambridge, Mass.) at a molar ratio of 50:38.5:10:1.5 in 200-proof ethanol. For all studies, the ethanolic lipid and siRNA solutions were hand mixed via pipette. The LNPs for in vivo use were also dialyzed for 75 minutes against 1×PBS in 3500 MW cut-off (MWCO) cassettes (Pierce/Thermo Scientific, Rockford, Ill.) prior to use.
In vitro transfection was performed on HeLa cells stably modified to constitutively express both firefly and Renilla luciferases. Cells were maintained at 37° C. in a 5% CO2 atmosphere in high glucose Dulbelco modified Eagles medium without phenol red (Invitrogen, Carlsbad, Calif.) supplemented with 10% fetal bovine serum (FBS, Invitrogen). Prior to transfection, 15,000 cells were seeded in white 96-well plates and allowed to attach overnight. On the day of transfection, the media was replaced with 90 μL of fresh media. LNPs were formulated at a concentration of 10 ng/μL and diluted with 1×PBS to obtain the desired concentration. For example, to achieve a transfection of 25 ng of siRNA per well, the 10 ng/μL stock was diluted 1:4 to give 2.5 ng/μL, and 10 μL of this solution was added to the cells in 90 μL of media. Lipofectamine (RNAiMAX) was used according to the manufacturer's instructions as a positive control. Relative firefly luciferase silencing was assessed approximately 24 hours after LNP addition using a Dual-Glo luciferase assay kit (Promega, Madison, Wis.). The firefly luciferase values were normalized to the Renilla luciferase values in order to correct for potential toxicity and/or off-target effects. All experiments were carried out in sextuplicates.

Data set [5] relates to HeLa cells. Briefly: Confocal microscopy of LNPs with FRET-labeled siRNA probes. The class given is cell-based. The note with it: 50 ng FRET-labeled probes, one hour. Here is the method: HeLa cells were seeded at 1.5×10^4 cells per well in black (clear bottom) 96-well plates (Greiner Bio-one) and incubated for 24 hours prior to transfection. The cells were then transfected with the inventive LNPs containing 50 ng of FRET-labeled probes for one hour. The cells were washed, fixed, and counterstained in PBS containing Hoechst (2 μg/mL) for nuclei identification. The cells were then imaged using an automated spinning disk confocal microscope (OPERA, Perkin Elmer) with a 40× objective. The exposure rates were maintained constant for individual fluorophores across the 96-well plate. The images were acquired from the Acapella software with a 20 μm scale bar.

Data set [6] concerns Human red blood cells (RBCs). Briefly: Hemolysis assay. The class given is cell-based. The following applies: endosomal pH 5.5, 37 C, one hour. Here is the method:
Human red blood cells (RBCs, Innovative Research) were washed twice with 1×PBS and diluted in either 1×PBS or citrate buffer saline at pH 5.5 (CBS, 20 mM citrate buffer, 130 mM NaCl) to a 4% v/v RBC solution. In a v-bottom, 96-well plate, 100 μL of blank LNPs formulated at an equivalent concentration of 23.75 ng siRNA/μL (no siRNA was used) were added to 100 μL of the 4% v/v RBC solution in either PBS or CBS and heated to 37° C. for one hour. After cooling, the plate was centrifuged at 4° C. at 1000×g for 5 minutes. 100 μL of the supernatant was transferred into a clear 96-well assay plate and the UV absorption was read 540 nm. Positive and negative control experiments were carried out with 0.1% Triton-X (100%) and buffer alone, respectively.

Data set [7] can be described thus: Dynamic light scattering, particle size. The class given is physicochemical. Here is the method:
After formulation, the LNPs-siRNA were diluted with 1×PBS to a final siRNA concentration of 2 μg/mL. The average particle size was measured via dynamic light scattering on a Malvern Zetasizer Nano ZS (Malvern Instruments, Worcestershire, UK). All experiments were carried out in triplicates.

“Also recorded” adds a separate entry of the source.

On to `CCCCCCCCCCSCC(COC(=O)CCN(CCC(=O)OCC(CSCCCCCCCCCC)SCCCCCCCCCC)CCN(C(C)C)C(C)C)SCCCCCCCCCC` (centres unmarked) [I-4], for which the “intracellular FRET signal (uptake of intact LNPs)” value in the data set with HeLa cells [1] was “did not give an intracellular FRET signal”. Moreover, the “LNP pKa” value in data set [2] is “low pKa values”. In addition, the cellular uptake entry in the data set with HeLa cells [3] was “relatively high uptake”. For the same compound, the “in vitro gene silencing (firefly luciferase, Luc/Ren)” value in data set [4] was “poor gene silencing; also recorded: limited gene silencing performance”; in data set [4] (listed as 4), “low gene silencing”.

For `CCCCCCCCCCSCC(COC(=O)CCN(CCCN1CCCN(C)CC1)CCC(=O)OCC(CSCCCCCCCCCC)SCCCCCCCCCC)SCCCCCCCCCC` (centres unmarked) [I-21], the “LNP pKa” value in data set [2] is on record as “low pKa values”. The “in vitro gene silencing (firefly luciferase, Luc/Ren)” value is given as “poor gene silencing” in data set [4] and “low gene silencing” in data set [4] (listed as 21).

Turning to `CCCCCCCCCCSCC(COC(=O)CCN(CCCN(CC)CC)CCC(=O)OCC(CSCCCCCCCCCC)SCCCCCCCCCC)SCCCCCCCCCC` (centres unmarked) [I-2], the “intracellular location of LNPs” value in the data set on HeLa cells [5] was “located near the cell membrane and inside endocytic vesicles; also recorded: reside in the endocytic vesicles”. Moreover, the “LNP-mediated hemolysis of RBCs at pH 5.5” value in data set [6] is given as “hemolytic”.

In the case of `CCCCCCCCCCSCC(COC(=O)CCN(CCCN(CCCC)CCCC)CCC(=O)OCC(CSCCCCCCCCCC)SCCCCCCCCCC)SCCCCCCCCCC` (centres unmarked) [I-6], the “LNP pKa” value in data set [2] was “low pKa values”. Besides, the “in vitro gene silencing (firefly luciferase, Luc/Ren)” value in data set [4] is listed as “poor gene silencing”; in data set [4] (listed as 6), “low gene silencing”.

Consider `CCCCCCCCCCSCC(COC(=O)CCN(CCCn1ccnc1)CCC(=O)OCC(CSCCCCCCCCCC)SCCCCCCCCCC)SCCCCCCCCCC` (centres unmarked) [I-20], for which the “LNP pKa” value in data set [2] is listed as “low LNP pKa values”. Also, in data set [4], the “in vitro gene silencing (firefly luciferase, Luc/Ren)” value was “poor gene silencing”.

Turning to `CCCCCCCCCCSCC(COC(=O)CCN(CCC(=O)OCC(CSCCCCCCCCCC)SCCCCCCCCCC)CCN1CCS(=O)(=O)CC1)SCCCCCCCCCC` (centres unmarked) [I-28], the “intracellular FRET signal (uptake of intact LNPs)” value in the data set with HeLa cells [1] is “did not give an intracellular FRET signal”. Besides, the “LNP pKa” value in data set [2] is recorded as “low LNP pKa values”. Further, the cellular uptake entry with HeLa cells [3] was “relatively high uptake”. In addition, the “in vitro gene silencing (firefly luciferase, Luc/Ren)” value in data set [4] is reported as “limited gene silencing performance”.

Take `CCCCCCCCCCSCC(COC(=O)CCN(CCC(=O)OCC(CSCCCCCCCCCC)SCCCCCCCCCC)C1CCN(Cc2ccccc2)CC1)SCCCCCCCCCC` (centres unmarked) [I-29]: the “LNP pKa” value in data set [2] is “low LNP pKa values”. Moreover, the “in vitro gene silencing (firefly luciferase, Luc/Ren)” value in data set [4] is recorded as “poor gene silencing”.

As for `CCCCCCCCCCSCC(COC(=O)CCN(CCC(=O)OCC(CSCCCCCCCCCC)SCCCCCCCCCC)C1CCN(Cc2ccccc2)C1)SCCCCCCCCCC` (centres unmarked) [I-30], the “LNP pKa” value in data set [2] is reported as “low LNP pKa values”. Moreover, in data set [4], the “in vitro gene silencing (firefly luciferase, Luc/Ren)” value is given as “poor gene silencing”.

As to `CCCCCCCCCCSCC(COC(=O)CCN(CCC(=O)OCC(CSCCCCCCCCCC)SCCCCCCCCCC)CCN(C)C)SCCCCCCCCCC` (centres unmarked) [I-3], the “intracellular location of LNPs” value in the data set on HeLa cells [5] is “located near the cell membrane and inside endocytic vesicles; also recorded: reside in the endocytic vesicles”. Moreover, the “LNP-mediated hemolysis of RBCs at pH 5.5” value in data set [6] is “hemolytic”.

Consider `CCCCCCCCCCSCC(COC(=O)CCN(CCC(=O)OCC(CSCCCCCCCCCC)SCCCCCCCCCC)CCC1CCCC1)SCCCCCCCCCC` (centres unmarked) [I-18], for which the “particle size / nanoparticle formation” value in data set [7] is “able to form nanoparticles”. Also, in data set [4], the “in vitro gene silencing (firefly luciferase, Luc/Ren)” value is recorded as “poor gene silencing; also recorded: unable to silence the target gene”.

In the case of `CCCCCCCCCCSCC(COC(=O)CCN(CCC(=O)OCC(CSCCCCCCCCCC)SCCCCCCCCCC)CCc1ccccn1)SCCCCCCCCCC` (centres unmarked) [I-13], in data set [2], the “LNP pKa” value is “low LNP pKa values”. The “in vitro gene silencing (firefly luciferase, Luc/Ren)” value in data set [4] is listed as “poor gene silencing”.
